“And” between values parts separate entries of the source, which are not always exact repeats. Equal entries are not always repeated. Where two headings read alike, the source gives them in different places.
How the values were obtained:
[1] = molecular target: T1, reverse transcriptase of the HIV 1 virus (Human immunodeficiency virus type 1 group M subtype B, UniProt P04585); assay: Action on reverse transcriptase of the HIV 1 virus (3H thymidine triphosphate incorporation); assay type: biochemical
T1 construct: Action on Reverse Transcriptase of the HIV 1 Virus; made in house; host or cells: HIV 1 virus grown on CEM cells; virus pelleted from the culture medium and resuspended in Triton X 100 (viral lysate, not recombinant)
Method: For the direct study of the action of the product on the activity of the reverse transcriptase, the virus was concentrated by ultracentrifugation and the plugs of virus removed from the culture medium are resuspended in a solution containing 0.15% Triton X 100, 0.05M Tris at pH 7.8 and 20% glycerol.
These preparations, frozen at -20° C., are active for several months and served for the direct measurement of the products on enzymatic activity.
The THA is diluted as stated above and added to 40 μl of the incubation solution under a volume of 5.5 μl before the addition of 10 μl of the enzymatic preparation. Initial concentrations of the product are thus 10 times more concentrated than the final dilution in the presence of the enzyme. The controls received 5.5 μl of water.

T4 = tested on: T4
Method: Seven Month Follow-Up of Tacrine (THA) vs Zidovudine (AZT) in 72 HIV Infected Patients
Comparison of serological and clinical status of HIV infected patients after THA versus AZT treatment in an open study.
[…] (61 males, 11 females) with HIV infection ([…], 10 stages II and III), received either AZT (46 patients 600-1200 mg./day) or THA (26 patients 150-250 mg/day). In cases of intolerance or inefficacy, treatment was discontinued and patients were treated by the other drug.

Agp 24 = assay: Seven month follow-up of THA vs AZT in HIV infected patients (open study): Agp 24; assay type: in vivo
Excerpt: Expressed in mean variation (%) in comparison with Do values.

HIV [2] = assay: Seven month follow-up of THA vs AZT in HIV infected patients (open study): clinical results; assay type: in vivo, human
Method: (§8) 70 patients (61 males, 11 females) with HIV infection (69 stage IV, 10 stages II and III), received either AZT (46 patients 600-1200 mg./day) or THA (26 patients 150-250 mg/day).
(§9) 13 patients were treated by THA alone, 20 by AZT alone, 26 by AZT then THA and 13 by THA then AZT. Mean duration of treatment was 5.8 months for 53 courses of AZT 5.4 months for 52 courses of THA.

[3] = Seven month follow-up of THA vs AZT in HIV infected patients (open study): withdrawals for toxicity; assay type: in vivo, human; details: AZT n = 52; THA n = 51
Method: as §8, §9

HIV [4] = details: for Antigenemia, evolution (%) in comparison with D0: D0 value 462 pg/ml
Method: (§1) Seven Month Follow-Up Study of Tacrine Administration to 26 HIV Infected Patients
(§2) Tacrine was supplied as capsules containing 63.5 mg. Tacrine hydrochloride,monohydrate corresponding to 50 mg. base. An inert excipient (lactose) was added to fill white hard size 3 gelatin capsules.
(§3) For the first 15 days, patients received 2 capsules a day (i.e., 1 capsule at 8 A.M. and 1 at 8 P.M.). After the first 15 days, if nausea had not occurred or had ceased, the dosage was augmented by 1 capsule (i.e., 1 capsule at 8 A.M., 1 at lunch time and 1 at 8 P.M.). After this second period of 15 days, if nausea had not occurred or had ceased, the dosage was augmented by a further 1 capsule, to reach 4 capsules a day (i.e., 1 capsule at 8 A.M., 1 at lunch time, 1 at 4 P.M. and 1 at 8 P.M.).
(§4) D0 --Inclusion Examination--Serological, hematological and clinical determinations. Patients are supplied with capsules of Tacrine for 15 days.
(§5) D15 --First Control after 15 Days Treatment--Serological, hematological and clinical determinations. Patients are supplied with capsules of Tacrine for 15 days.
(§6) D1mth --Second control after 1 month of Treatment--Serological, hematological and clinical determinations. Patients are supplied with capsules of Tacrine for 1 month.
(§7) D'n'mth --Same as D1mth. Following examinations of one month interval each.

T4 Lymphocytes = details: D0 value 203/mm^3
Method: as §1, §2, §3, §4, §5, §6, §7

[5] = Seven month follow-up of Tacrine in 26 HIV infected patients: tolerability, side effects and withdrawals; assay type: in vivo, human
Method: Tacrine was supplied as capsules containing 63.5 mg. Tacrine hydrochloride,monohydrate corresponding to 50 mg. base.
D0 --Inclusion Examination--Serological, hematological and clinical determinations.
as §7
Their mean age was 40.3 (range 27-65).
Mean duration of treatment was 6 months.

[6] = molecular target: polymerase of Micrococcus Lysodecticus; details: read-out: Di50 for the inhibition of the DNA polymerase; specificity test, same concentrations as for reverse transcriptase
Excerpt: In order to evaluate the specificity of THA, the effects on the reverse transcriptase and on a non-viral DNA polymerase, namely the polymerase of Micrococcus Lysodecticus have been compared at the same concentrations.

CEM cells = tested on: CEM cells
Method: The CEM lines utilized for the multiplication of the virus, as well as for the inhibition studies, was provided by Service of Francoise Barre-Sinoussi, at the Institute Pasteur. The culture medium is RPMI 1640, supplemented with 10% fetal calf serum, 2% glutamine and 1% antibiotics. The cells are counted and subcultured in a culture flask every 3 or 4 days. In certain cases, the fungicide amphotericin B is added in dosages of 5 μg./ml.
The HIV 1 virus was provided from the same source and grown on CEM cells in the culture described above. The infection is created with a supernatant on the culture at a dose level of 50,000 cpm per 10^6 cells.
Healthy CEM cells were infected with HIV 1 virus at 40,000 cpm per 10^6 cells. After 7 days of infection at 37° C. an equal quantity of healthy cells are added, non-absorbed viruses removed and 5.10^5 cells/ml. and 5 ml. of medium are brought into the presence of THA.
During 5 or 6 days, the cells are counted and the supernatant of the culture is recovered for evaluation of the reverse transcriptase activity, that is to say, to determine the production of HIV 1 virus liberated by the cells. The cells are subculture into fresh medium containing the inhibitor at different concentrations.

[7] = Hepatotoxicity on administration of Tacrine (prior reports and applicants' studies); assay type: in vivo; details: more recent studies by Applicants
HIV 1 virus = details: 5 μM and 10 μM THA
Method: The HIV 1 virus was provided from the same source and grown on CEM cells in the culture described above. The infection is created with a supernatant on the culture at a dose level of 50,000 cpm per 10^6 cells. The infection is followed by the evaluation of the activity of the reverse transcriptase which can reach a level of 10^6 cpm/ml. at the end of the culture. […]
35 μl of an incubation medium are made up of a solution of 0.07M magnesium chloride, 0.028M potassium chloride, 0.07M Tris at pH 7.8, 1.4 mM DTT and contain 5 μCi of ^3 H thymidine triphosphate, 2.5 μl of poly A are added to a unit of OD/ml. and 2.5 μl of oligo dT 12-18 to 1 unit of O.D/ml. and finally 10 μl of the plug resuspension from the ultracentrifugation or a control enzymatic preparation. […] The incorporated radioactivity which is as precipitated as an acid insoluble form was washed on Millipore HA 0.45 micron filters and counted by liquid scintillation counters. […]

[8] = reported by Byrne and Acie, British Med. J. 298 (1989) 845; cited from earlier work
[9] = during the first month of treatment
[10] = within the first month of treatment

## O=C(O)P(=O)(O)O [phosphonoformate]
[1]; 50% inhibition (Di50) of HIV 1 reverse transcriptase, 37° C., 1 hour
  IC50: 1 µM

## Cc1cn([C@H]2C[C@H](N=[N+]=[N-])[C@@H](CO)O2)c(=O)[nH]c1=O [AZT]
T4; D1mth
  T4 /mm^3, mean variation (%) in comparison with D0: +0.5%
T4; D2mth
  T4 /mm^3, mean variation (%) in comparison with D0: +8.1%
T4; D3mth
  T4 /mm^3, mean variation (%) in comparison with D0: +18.5%
T4; D4mth
  T4 /mm^3, mean variation (%) in comparison with D0: +8.8%
T4; D5mth
  T4 /mm^3, mean variation (%) in comparison with D0: +17.2%
T4; D6mth
  T4 /mm^3, mean variation (%) in comparison with D0: -40%
T4; D7mth
  T4 /mm^3, mean variation (%) in comparison with D0: -40%
Agp 24; D1mth
  Agp 24, mean variation (%) in comparison with D0: -20.6%
Agp 24; D2mth
  Agp 24, mean variation (%) in comparison with D0: +3.4%
Agp 24; D3mth
  Agp 24, mean variation (%) in comparison with D0: -1%
Agp 24; D4mth
  Agp 24, mean variation (%) in comparison with D0: +55.6%
Agp 24; D5mth
  Agp 24, mean variation (%) in comparison with D0: +36.5%
Agp 24; D6mth
  Agp 24, mean variation (%) in comparison with D0: +173%
Agp 24; D7mth
  Agp 24, mean variation (%) in comparison with D0: +142%
HIV [2]; AZT n = 52, THA n = 51
  Deaths, number: 7
  Deaths, percent: 12%
  Kaposi Emergence, number: 3
  Kaposi Emergence, percent: 5%
  Opportunistic Infections, number: 27
  Opportunistic Infections, percent: 46%
[3]
  Withdrawals for toxicity, number: 29
  Withdrawals for toxicity, percent: 49%

## Nc1c2c(nc3ccccc13)CCCC2 [Tacrine, 9-Amino-1,2,3,4-tetrahydroacridine]
HIV [4]; D1mth
  Antigenemia, evolution (%) in comparison with D0: -35.3%
HIV [4]; D2mth
  Antigenemia, evolution (%) in comparison with D0: -22.1%
HIV [4]; D3mth
  Antigenemia, evolution (%) in comparison with D0: -24%
HIV [4]; D4mth
  Antigenemia, evolution (%) in comparison with D0: -17%
HIV [4]; D5mth
  Antigenemia, evolution (%) in comparison with D0: -19.4%
HIV [4]; D6mth
  Antigenemia, evolution (%) in comparison with D0: -54%
HIV [4]; D7mth
  Antigenemia, evolution (%) in comparison with D0: -51.3%
HIV [4]; D15
  Antigenemia, evolution (%) in comparison with D0: -38.5%
HIV [4]; in 4 patients
  Opportunistic infections, cases: 4 cases
HIV [4]; number of cases, 26 patients
  Kaposi sarcoma emergence: 2
  Opportunistic infections: pneumocystosis: 1
  Opportunistic infections: toxoplasmosis: 1
HIV [4]; seven month follow-up
  Opportunistic infections, patients: 4/26
HIV [4]; seven month follow-up, 26 patients
  Mortality: none
T4 Lymphocytes; D1mth
  T4 Lymphocytes counts, evolution (%) in comparison with D0: +16.7%
T4 Lymphocytes; D2mth
  T4 Lymphocytes counts, evolution (%) in comparison with D0: +23.9%
T4 Lymphocytes; D3mth
  T4 Lymphocytes counts, evolution (%) in comparison with D0: +19.5%
T4 Lymphocytes; D4mth
  T4 Lymphocytes counts, evolution (%) in comparison with D0: +28%
T4 Lymphocytes; D5mth
  T4 Lymphocytes counts, evolution (%) in comparison with D0: +26.6%
T4 Lymphocytes; D6mth
  T4 Lymphocytes counts, evolution (%) in comparison with D0: +8.4%
T4 Lymphocytes; D7mth
  T4 Lymphocytes counts, evolution (%) in comparison with D0: +25.6%
T4 Lymphocytes; D15
  T4 Lymphocytes counts, evolution (%) in comparison with D0: +5%
[5]; 26 patients
  Hematotoxicity: decrease of hematological counts: 0%
  Hepatotoxicity: transaminase elevation: 0%
[5]; after the first month
  Nausea, cases: 2 cases
  Nausea, incidence: 10%
[5]; [9]
  Nausea, cases: 9 cases
  Nausea, incidence: 35%
[5]; [10]
  Withdrawals for side effects (severe nausea or neurologic), cases: 2 cases
  Withdrawals for side effects (severe nausea or neurologic), incidence: 8%
T4; D1mth
  T4 /mm^3, mean variation (%) in comparison with D0: +20.5%
T4; D2mth
  T4 /mm^3, mean variation (%) in comparison with D0: +31.7%
T4; D3mth
  T4 /mm^3, mean variation (%) in comparison with D0: +55.2%
T4; D4mth
  T4 /mm^3, mean variation (%) in comparison with D0: +74.8%
T4; D5mth
  T4 /mm^3, mean variation (%) in comparison with D0: +91.9%
T4; D6mth
  T4 /mm^3, mean variation (%) in comparison with D0: +52%
T4; D7mth
  T4 /mm^3, mean variation (%) in comparison with D0: +68.3%
Agp 24; D1mth
  Agp 24, mean variation (%) in comparison with D0: -39.4%
Agp 24; D2mth
  Agp 24, mean variation (%) in comparison with D0: -28.3%
Agp 24; D3mth
  Agp 24, mean variation (%) in comparison with D0: -26.2%
Agp 24; D4mth
  Agp 24, mean variation (%) in comparison with D0: -21.5%
Agp 24; D5mth
  Agp 24, mean variation (%) in comparison with D0: -18.7%
Agp 24; D6mth
  Agp 24, mean variation (%) in comparison with D0: -39.5%
Agp 24; D7mth
  Agp 24, mean variation (%) in comparison with D0: -25%
HIV [2]; AZT n = 52, THA n = 51
  Deaths, number: 0
  Kaposi Emergence, number: 2
  Kaposi Emergence, percent: 4%
  Opportunistic Infections, number: 3
  Opportunistic Infections, percent: 6%
HIV [2]; THA vs AZT courses
  Deaths, significance p in comparison with AZT courses: < 0.05
HIV [2]; after 6 months of treatment
  THA versus AZT course of treatment, conclusion: decrease in Agp24 levels, mortality and incidences of opportunistic infections
[3]
  Withdrawals for toxicity, number: 4
  Withdrawals for toxicity, percent: 8%
[1]; 37° C., 1 hour, read-out: 50% inhibition (Di50) of HIV 1 reverse transcriptase (converted)
  IC50: 400 µM and 504 µM
[1]; HPA 23 at 4 μg/ml
  Inhibition of HIV 1 reverse transcriptase in combination with HPA 23: synergistic effect with HPA 23
[1]; conclusions
  Inhibiting effect on reverse transcriptase: low
[1]; specificity test vs DNA polymerase, same concentrations, read-out: Di50 with respect to the reverse transcriptase
  IC50: 450 µM
[6]
  IC50: 1000 µM
CEM cells
  Dose dependence of protective effect in CEM cultures: dose-dependent
CEM cells; 1 μM THA
  Proliferation of HIV 1 infected CEM cultures: viral infection inhibits the proliferation
CEM cells; 5 μM THA
  Proliferation of HIV 1 infected CEM cultures: the cells multiply up to the 16th. day and then decline to be destroyed like the previous cultures right up to the 28th day
CEM cells; 10 μM THA
  Proliferation of HIV 1 infected CEM cultures: the cultures continue to proliferate right up to the 28th day
CEM cells; at the 5 μM and more particularly at the 10 μM level
  Protection of CEM cultures against lytic effect of HIV virus: protects CEM cultures against the lytic effect of the HIV virus
[7]
  Hepatotoxicity with purified sources of Tacrine: hepatotoxicity can be avoided by utilizing purified sources of Tacrine
HIV 1 virus
  Viral replication with respect to control cultures: viral replication persists although significantly diminished
[8]
  Hepatotoxicity on long term administration: long term administration of Tacrine is not practical because of hepatotoxicity

Reference: patent US5175172A, “Method of alleviating AIDS symptoms and compositions therefor” (priority 1988, dated 1992)
